According to ChEMBL document CHEMBL4507310, “Data for DCP probe A-1211212” (2021):
pKi: −log10 of the molar value.

Columns and labels:
D(3) dopamine receptor = D(3) dopamine receptor (Homo sapiens, UniProt P35462); experiment: GPCRScan assay: inhibition of D3; parameters: radioligand conc. used [nm] 0.5 – 1.8, parental cells HEKT
[1] = biological target: Sodium-dependent dopamine transporter (Homo sapiens, UniProt Q01959); experiment: GPCRScan assay: inhibition of DAT; parameters: radioligand conc. used [nm] 3.6 – 16.0, parental cells stable HEK
[2] = biological target: Alpha-1D adrenergic receptor (Homo sapiens, UniProt P25100); experiment: GPCRScan assay: inhibition of Alpha1D; parameters: radioligand conc. used [nm] 0.3 – 1.0, parental cells stable
[3] = biological target: Sigma intracellular receptor 2 (Homo sapiens, UniProt Q5BJF2); experiment: GPCRScan assay: inhibition of Sigma 2; parameters: radioligand conc. used [nm] 5.0, parental cells HEKT
Chain of Sigma intracellular receptor 2 (Q5BJF2 whole entry): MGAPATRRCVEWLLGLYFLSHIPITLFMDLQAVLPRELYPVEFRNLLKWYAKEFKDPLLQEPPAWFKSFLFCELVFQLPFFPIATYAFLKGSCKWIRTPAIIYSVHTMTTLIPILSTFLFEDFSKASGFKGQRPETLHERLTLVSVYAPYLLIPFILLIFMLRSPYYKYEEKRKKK

RS4-11 = experiment: CellTiter-Glo Luminescent Cell Viability Assay with RS4-11 cells (BCL-2 dependent cell line); assay type: functional, cell-based; details: Homo sapiens
[4] = biological target: Tumor necrosis factor (Homo sapiens) (UniProt P01375); experiment: TNF-alpha (h) Eurofins-Cerep binding assay; parameters: ligand concentration 0.1 nM; details: filed as agonist, Compound concentration 10.0 uM
Chain of Tumor necrosis factor (Homo sapiens) (P01375 whole entry): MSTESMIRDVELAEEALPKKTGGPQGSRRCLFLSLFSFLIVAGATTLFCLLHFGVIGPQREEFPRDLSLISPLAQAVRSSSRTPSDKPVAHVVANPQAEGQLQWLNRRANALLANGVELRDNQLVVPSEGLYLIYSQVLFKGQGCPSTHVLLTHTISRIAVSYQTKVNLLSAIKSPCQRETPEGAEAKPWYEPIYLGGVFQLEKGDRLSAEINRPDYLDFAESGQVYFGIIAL

[5] = biological target: Substance-K receptor (Homo sapiens) (UniProt P21452); experiment: NK2 (h) Eurofins-Cerep binding assay; parameters: ligand concentration 0.1 nM; details: filed as agonist, Compound concentration 10.0 uM
[6] = biological target: Urotensin-2 receptor (Homo sapiens) (UniProt Q9UKP6); experiment: UT (h) Eurofins-Cerep binding assay; parameters: ligand concentration 0.1 nM; details: filed as agonist, Compound concentration 10.0 uM
[7] = biological target: GABA-A receptor; anion channel (Rattus norvegicus) (UniProt O09028+P15431+P18506+P18508+P19969+P20236+P23574+P23576+P28471+P28473+P30191+P62813+P63079+P63138+Q91ZM7+Q9ES14); experiment: Cl- channel (GABA-gated) Eurofins-Cerep binding assay; assay type: protein-complex assay; parameters: ligand concentration 3 nM; details: filed as antagonist, Compound concentration 10.0 uM
[8] = biological target: 5'-AMP-activated protein kinase catalytic subunit alpha-1 (Homo sapiens) (UniProt Q13131); details: Compound concentration 1000.0 nM
[9] = biological target: Ankyrin repeat and protein kinase domain-containing protein 1 (Homo sapiens) (UniProt Q8NFD2); details: Compound concentration 1000.0 nM
[10] = biological target: Calcium/calmodulin-dependent protein kinase type 1G (Homo sapiens) (UniProt Q96NX5); details: Compound concentration 1000.0 nM
[11] = biological target: Calcium/calmodulin-dependent protein kinase type II subunit gamma (Homo sapiens) (UniProt Q13555); details: Compound concentration 1000.0 nM
[12] = biological target: Dual specificity tyrosine-phosphorylation-regulated kinase 1A (Homo sapiens) (UniProt Q13627); details: Compound concentration 1000.0 nM
[13] = system: Epidermal growth factor receptor (Homo sapiens), P00533 [L858R]; details: Compound concentration 1000.0 nM
[14] = biological target: Serine/threonine-protein kinase/endoribonuclease IRE1 (Homo sapiens) (UniProt O75460); details: Compound concentration 1000.0 nM
Chain of Serine/threonine-protein kinase/endoribonuclease IRE1 (Homo sapiens) (O75460 19-977 limits assumed): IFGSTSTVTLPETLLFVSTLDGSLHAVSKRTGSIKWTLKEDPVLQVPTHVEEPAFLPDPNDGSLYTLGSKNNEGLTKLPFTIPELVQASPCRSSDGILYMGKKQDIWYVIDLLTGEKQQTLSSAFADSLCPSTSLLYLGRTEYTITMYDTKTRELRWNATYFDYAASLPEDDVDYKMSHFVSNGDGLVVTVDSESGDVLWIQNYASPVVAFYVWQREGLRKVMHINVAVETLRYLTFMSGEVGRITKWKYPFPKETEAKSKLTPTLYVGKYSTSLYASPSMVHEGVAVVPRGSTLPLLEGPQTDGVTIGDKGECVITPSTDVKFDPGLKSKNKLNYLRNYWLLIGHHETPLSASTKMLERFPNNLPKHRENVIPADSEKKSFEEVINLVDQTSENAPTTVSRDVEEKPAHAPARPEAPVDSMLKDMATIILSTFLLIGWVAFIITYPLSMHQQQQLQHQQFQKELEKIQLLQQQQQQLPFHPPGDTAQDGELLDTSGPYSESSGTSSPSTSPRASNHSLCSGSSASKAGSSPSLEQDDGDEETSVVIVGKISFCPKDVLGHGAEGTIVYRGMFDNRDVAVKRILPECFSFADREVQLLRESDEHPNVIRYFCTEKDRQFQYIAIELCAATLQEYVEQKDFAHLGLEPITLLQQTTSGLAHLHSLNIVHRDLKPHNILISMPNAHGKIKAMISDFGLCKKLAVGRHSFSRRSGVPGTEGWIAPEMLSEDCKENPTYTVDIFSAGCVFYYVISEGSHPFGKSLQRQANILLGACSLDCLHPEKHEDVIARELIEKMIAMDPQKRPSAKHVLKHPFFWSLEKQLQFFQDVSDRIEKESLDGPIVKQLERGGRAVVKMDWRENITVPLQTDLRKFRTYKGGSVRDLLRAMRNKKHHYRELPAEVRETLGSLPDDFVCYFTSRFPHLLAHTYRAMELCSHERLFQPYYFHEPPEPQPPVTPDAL

[15] = biological target: Interleukin-1 receptor-associated kinase 3 (Homo sapiens) (UniProt Q9Y616); details: Compound concentration 1000.0 nM
Chain of Interleukin-1 receptor-associated kinase 3 (Homo sapiens) (Q9Y616 whole entry): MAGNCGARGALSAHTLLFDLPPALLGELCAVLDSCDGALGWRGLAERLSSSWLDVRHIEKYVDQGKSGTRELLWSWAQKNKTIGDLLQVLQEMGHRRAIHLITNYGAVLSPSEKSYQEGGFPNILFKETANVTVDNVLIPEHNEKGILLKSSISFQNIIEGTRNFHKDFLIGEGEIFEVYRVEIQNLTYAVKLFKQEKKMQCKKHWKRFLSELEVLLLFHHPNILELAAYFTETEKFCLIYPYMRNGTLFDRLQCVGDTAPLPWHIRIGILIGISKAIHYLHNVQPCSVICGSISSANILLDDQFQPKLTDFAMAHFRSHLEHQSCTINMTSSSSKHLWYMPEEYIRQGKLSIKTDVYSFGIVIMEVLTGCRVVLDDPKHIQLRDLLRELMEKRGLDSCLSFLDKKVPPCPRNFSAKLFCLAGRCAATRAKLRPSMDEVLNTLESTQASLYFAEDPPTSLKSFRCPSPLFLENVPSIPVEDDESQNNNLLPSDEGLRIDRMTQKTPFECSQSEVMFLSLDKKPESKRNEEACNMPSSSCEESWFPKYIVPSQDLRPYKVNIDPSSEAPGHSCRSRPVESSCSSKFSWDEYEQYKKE

[16] = system: Mast/stem cell growth factor receptor Kit (Homo sapiens), P10721 [V559D,T670I]; details: Compound concentration 1000.0 nM
[17] = biological target: Mitogen-activated protein kinase kinase kinase 15 (Homo sapiens) (UniProt Q6ZN16); details: Compound concentration 1000.0 nM
[18] = biological target: Microtubule-associated serine/threonine-protein kinase 1 (Homo sapiens) (UniProt Q9Y2H9); details: Compound concentration 1000.0 nM
[19] = biological target: Myosin light chain kinase, smooth muscle (Homo sapiens) (UniProt Q15746); details: Compound concentration 1000.0 nM
[20] = biological target: Serine/threonine-protein kinase PAK 4 (Homo sapiens) (UniProt O96013); details: Compound concentration 1000.0 nM
Chain of Serine/threonine-protein kinase PAK 4 (Homo sapiens) (O96013 whole entry, looked up): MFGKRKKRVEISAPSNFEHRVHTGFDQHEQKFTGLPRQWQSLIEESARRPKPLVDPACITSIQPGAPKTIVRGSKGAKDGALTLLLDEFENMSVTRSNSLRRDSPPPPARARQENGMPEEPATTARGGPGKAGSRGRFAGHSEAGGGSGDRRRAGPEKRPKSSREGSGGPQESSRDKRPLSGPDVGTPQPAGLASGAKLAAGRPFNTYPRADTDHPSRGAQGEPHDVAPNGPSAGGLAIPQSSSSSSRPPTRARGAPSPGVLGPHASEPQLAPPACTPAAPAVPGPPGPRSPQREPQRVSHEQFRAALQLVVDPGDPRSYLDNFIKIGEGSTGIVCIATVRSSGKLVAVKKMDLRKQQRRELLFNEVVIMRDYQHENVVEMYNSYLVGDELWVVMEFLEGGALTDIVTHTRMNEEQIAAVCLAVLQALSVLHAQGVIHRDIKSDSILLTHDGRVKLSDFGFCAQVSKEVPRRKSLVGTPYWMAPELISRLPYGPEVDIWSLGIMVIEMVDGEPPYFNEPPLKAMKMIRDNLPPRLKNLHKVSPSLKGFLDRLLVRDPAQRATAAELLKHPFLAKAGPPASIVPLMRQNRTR

[21] = biological target: Serine/threonine-protein kinase PAK 6 (Homo sapiens) (UniProt Q9NQU5); details: Compound concentration 1000.0 nM
Chain of Serine/threonine-protein kinase PAK 6 (Homo sapiens) (Q9NQU5 whole entry, looked up): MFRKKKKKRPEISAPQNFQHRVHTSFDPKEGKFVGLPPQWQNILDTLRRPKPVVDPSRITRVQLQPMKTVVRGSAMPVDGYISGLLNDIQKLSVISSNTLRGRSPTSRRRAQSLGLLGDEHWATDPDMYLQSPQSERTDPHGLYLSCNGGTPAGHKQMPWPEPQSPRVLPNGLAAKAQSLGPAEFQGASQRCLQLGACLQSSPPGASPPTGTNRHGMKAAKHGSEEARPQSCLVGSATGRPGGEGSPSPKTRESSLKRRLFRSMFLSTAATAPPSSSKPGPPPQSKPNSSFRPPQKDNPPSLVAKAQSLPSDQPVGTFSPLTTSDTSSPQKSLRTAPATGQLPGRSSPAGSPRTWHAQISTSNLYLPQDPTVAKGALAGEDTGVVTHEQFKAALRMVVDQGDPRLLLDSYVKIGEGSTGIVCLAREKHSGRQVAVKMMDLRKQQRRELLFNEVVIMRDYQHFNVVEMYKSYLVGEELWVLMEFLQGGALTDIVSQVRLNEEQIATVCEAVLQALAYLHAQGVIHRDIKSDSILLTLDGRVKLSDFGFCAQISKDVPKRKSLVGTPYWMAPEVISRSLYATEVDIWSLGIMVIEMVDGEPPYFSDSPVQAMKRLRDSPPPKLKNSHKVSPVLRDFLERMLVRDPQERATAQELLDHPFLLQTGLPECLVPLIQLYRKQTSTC

[22] = biological target: Calcium-dependent protein kinase 1 (Plasmodium falciparum) (UniProt P62344); details: Compound concentration 1000.0 nM
Chain of Calcium-dependent protein kinase 1 (Plasmodium falciparum) (P62344 2-524 limits assumed): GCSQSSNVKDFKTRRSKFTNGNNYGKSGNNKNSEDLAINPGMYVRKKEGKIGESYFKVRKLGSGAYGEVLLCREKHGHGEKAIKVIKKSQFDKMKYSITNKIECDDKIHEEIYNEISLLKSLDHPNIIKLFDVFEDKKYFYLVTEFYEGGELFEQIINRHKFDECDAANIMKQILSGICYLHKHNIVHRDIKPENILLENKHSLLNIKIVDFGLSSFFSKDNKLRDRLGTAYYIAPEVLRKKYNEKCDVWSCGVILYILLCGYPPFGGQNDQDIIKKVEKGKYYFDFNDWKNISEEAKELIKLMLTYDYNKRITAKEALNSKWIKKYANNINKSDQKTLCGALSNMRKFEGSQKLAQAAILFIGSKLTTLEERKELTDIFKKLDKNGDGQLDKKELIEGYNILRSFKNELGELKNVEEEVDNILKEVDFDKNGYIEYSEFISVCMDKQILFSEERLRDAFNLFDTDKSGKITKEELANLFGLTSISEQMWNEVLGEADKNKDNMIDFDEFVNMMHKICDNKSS

[23] = biological target: Serine/threonine-protein kinase pim-3 (Homo sapiens) (UniProt Q86V86); details: Compound concentration 1000.0 nM
[24] = biological target: Protein kinase C epsilon type (Homo sapiens) (UniProt Q02156); details: Compound concentration 1000.0 nM
[25] = biological target: Protein kinase C eta type (Homo sapiens) (UniProt P24723); details: Compound concentration 1000.0 nM
[26] = biological target: Testis-specific serine/threonine-protein kinase 1 (Homo sapiens) (UniProt Q9BXA7); details: Compound concentration 1000.0 nM
Chain of Testis-specific serine/threonine-protein kinase 1 (Homo sapiens) (Q9BXA7 whole entry): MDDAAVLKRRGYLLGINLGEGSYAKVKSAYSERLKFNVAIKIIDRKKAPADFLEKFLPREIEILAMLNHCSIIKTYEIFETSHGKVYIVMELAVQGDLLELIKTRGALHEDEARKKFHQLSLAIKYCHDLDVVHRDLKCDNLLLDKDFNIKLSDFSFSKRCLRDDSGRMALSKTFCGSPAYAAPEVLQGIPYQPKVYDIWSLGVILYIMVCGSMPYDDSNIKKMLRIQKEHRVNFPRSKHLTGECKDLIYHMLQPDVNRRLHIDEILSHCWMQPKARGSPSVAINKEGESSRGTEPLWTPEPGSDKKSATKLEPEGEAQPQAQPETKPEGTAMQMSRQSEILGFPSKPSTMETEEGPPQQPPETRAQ

[27] = biological target: Non-receptor tyrosine-protein kinase TYK2 (Homo sapiens) (UniProt P29597); details: Compound concentration 1000.0 nM
[28] = biological target: Sodium-dependent serotonin transporter (Homo sapiens) (UniProt P31645); details: Compound concentration 10.0 uM
Chain of Sodium-dependent serotonin transporter (Homo sapiens) (P31645 whole entry, looked up): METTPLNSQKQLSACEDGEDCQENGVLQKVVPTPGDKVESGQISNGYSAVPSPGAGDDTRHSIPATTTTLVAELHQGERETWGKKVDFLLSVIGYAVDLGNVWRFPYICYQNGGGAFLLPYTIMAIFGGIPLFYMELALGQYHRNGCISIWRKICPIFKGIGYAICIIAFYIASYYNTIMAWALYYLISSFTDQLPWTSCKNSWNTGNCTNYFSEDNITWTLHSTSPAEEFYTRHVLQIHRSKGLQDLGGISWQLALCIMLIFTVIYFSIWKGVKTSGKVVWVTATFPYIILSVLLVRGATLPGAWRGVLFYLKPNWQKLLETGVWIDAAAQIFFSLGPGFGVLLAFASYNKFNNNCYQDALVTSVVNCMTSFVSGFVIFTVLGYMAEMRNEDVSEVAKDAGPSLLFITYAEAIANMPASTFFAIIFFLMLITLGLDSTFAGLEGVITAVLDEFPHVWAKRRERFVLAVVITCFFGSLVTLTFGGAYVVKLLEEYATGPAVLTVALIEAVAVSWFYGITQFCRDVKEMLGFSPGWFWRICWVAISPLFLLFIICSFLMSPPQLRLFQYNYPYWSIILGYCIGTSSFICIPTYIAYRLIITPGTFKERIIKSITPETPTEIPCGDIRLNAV

[29] = biological target: Kappa-type opioid receptor (Homo sapiens) (UniProt P41145); details: Compound concentration 10.0 uM
[30] = biological target: T1, Muscarinic acetylcholine receptor M4 (Homo sapiens) (UniProt P08173); details: Compound concentration 10.0 uM
T1 sequence (whole entry): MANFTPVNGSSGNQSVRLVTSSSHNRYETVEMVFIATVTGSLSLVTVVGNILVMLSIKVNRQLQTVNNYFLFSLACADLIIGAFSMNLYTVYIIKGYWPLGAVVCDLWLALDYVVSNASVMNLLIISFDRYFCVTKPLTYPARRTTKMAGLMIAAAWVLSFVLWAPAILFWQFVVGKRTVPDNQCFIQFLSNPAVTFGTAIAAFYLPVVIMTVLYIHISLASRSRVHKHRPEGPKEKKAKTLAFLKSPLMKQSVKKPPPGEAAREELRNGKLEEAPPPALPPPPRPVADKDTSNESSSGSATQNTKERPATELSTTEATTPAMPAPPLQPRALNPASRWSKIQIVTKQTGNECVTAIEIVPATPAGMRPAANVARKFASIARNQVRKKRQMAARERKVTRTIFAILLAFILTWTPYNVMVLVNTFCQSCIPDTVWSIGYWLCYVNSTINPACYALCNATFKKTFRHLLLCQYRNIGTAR

[31] = biological target: 5-hydroxytryptamine receptor 7 (Homo sapiens) (UniProt P34969); details: Compound concentration 10.0 uM
[32] = biological target: Sodium-dependent noradrenaline transporter (Homo sapiens) (UniProt P23975); details: Compound concentration 10.0 uM
[33] = biological target: Beta-2 adrenergic receptor (Homo sapiens) (UniProt P07550); details: Compound concentration 10.0 uM
[34] = biological target: Beta-3 adrenergic receptor (Homo sapiens) (UniProt P13945); details: Compound concentration 10.0 uM
[35] = biological target: Alpha-1D adrenergic receptor (Homo sapiens) (UniProt P25100); details: Compound concentration 10.0 uM

Compound | pKi [3] | % Inhibition of Control Specific Binding (Mean n=2) [4] [%] | % Inhibition of Control Specific Binding (Mean n=2) [5] [%] | % Inhibition of Control Specific Binding (Mean n=2) [6] [%] | % Inhibition of Control Specific Binding (Mean n=2) [7] [%] | residual activity [8] [%] | residual activity [9] [%] | residual activity [10] [%] | residual activity [11] [%] | residual activity [12] [%] | residual activity [13] [%] | residual activity [14] [%] | residual activity [15] [%] | residual activity [16] [%] | residual activity [17] [%] | residual activity [18] [%] | residual activity [19] [%] | residual activity [20] [%] | residual activity [21] [%] | residual activity [22] [%] | other results
O=C(NS(=O)(=O)c1ccc(NCC2CCOCC2)c([N+](=O)[O-])c1)c1ccc(N2CCN(Cc3ccc(C(F)(F)F)cc3-c3ccc(Cl)cc3)CC2)cc1Oc1cnc2[nH]ccc2c1 [A-1210227] | 5.08 | -42 | -2.4 | 2.7 | -1.3 | 84 | 77 | 92 | 88 | 63 | 90 | 90 | 100 | 100 | 84 | 100 | 65 | 93 | 73 | 82 | pKi (D(3) dopamine receptor): 5.00; pKi ([1]; read-out: Ki): 5.01; Ki ([1]; read-out: pKi (converted)): 9.77 µM; pKi [2]: 5.00; EC50 (RS4-11): > 5 µM (not active); residual activity [23]: 100%; residual activity [24]: 100%; residual activity [25]: 100%; residual activity [26]: 100%; residual activity [27]: 73%; inhibition [28]: -8.19%; inhibition [29]: -0.08%; inhibition [30]: -5.79%
CO[C@H]1CC[C@H](CNc2ccc(S(=O)(=O)NC(=O)c3ccc(N4CCN(CC5=C(c6ccc(Cl)cc6)CC(C)(C)CC5)CC4)cc3Oc3cnc4[nH]ccc4c3)cc2[N+](=O)[O-])CC1 [A-1211212] | 5.83 | -20.3 | -6.1 | 8.6 | 1.3 | 73 | 81 | 73 | 75 | 65 | 60 | 89 | 100 | 88 | 100 | 96 | 50 | 78 | 75 | 80 | residual activity [23]: 74%; residual activity [24]: 79%; residual activity [25]: 60%; residual activity [26]: 67%; residual activity [27]: 67%; inhibition [31]: -7.24%; inhibition [28]: 25.1%; inhibition [32]: 39.5%; inhibition [33]: 21.3%; inhibition [30]: -0.31%; inhibition [34]: -6.65%; inhibition [35]: -9.01%
